“Also recorded” adds a separate entry of the source.
Tests used:
hepatic steatosis [1] = assay: Liver steatosis (H&E sections) in DIO mice; type: in vivo, diet induced obesity (DIO) mice; conditions: DIO mice (60% Kcal from fat diet); 30 mg/kg/d orally, CMC suspension, 10 weeks
Experimental: (§1) The purpose of these studies was to compare the ability of Compound cis-13-1 to clear liver steatosis in diet induced obesity (DIO) mice. Methods: […] mice were maintained on a 60% Kcal from fat diet. Compound cis-13-1 was administered at doses of 30 mg/kg/d orally in a CMC suspension for 10 weeks. Liver steatosis was analyzed visually following H&E staining of paraffin embedded liver sections. TSH was measured using a rodent specific kit (Amersham Biosciences). Heart rates were measured using a Lead I ECG with the heart rate calculated from the ECG waveform.

[2] = Heart rate and cardiovascular parameters in ZDF rats; type: in vivo, Zucker diabetic fatty (ZDF) rats; conditions: end of experiment
Experimental: (§2) Methods: ZDF rats were maintained on a standard diet (5008). Compounds cis-13-1 or 18 were administered orally at the indicated doses using a CMC suspension. Liver steatosis was analyzed visually following H&E staining of paraffin embedded liver sections. TSH was measured using a rodent specific kit (Amersham Biosciences). At the end of the experiment, the left ventricle was cannulated with a high fidelity catheter-tip transducer (Millar) via the right carotid artery. Left ventricle pressure, its first derivative (LV dP/dt), lead I ECG, and heart rate triggered off the ECG waveform, were recorded.

mitochondria = assay: Ultrastructure of mitochondria in DIO mice; type: in vivo, diet induced obesity (DIO) mice; conditions: 30 mg/kg/d orally, 10 weeks
Experimental: as §1, with “Methods:” for “The purpose of these studies was to compare the ability of Compound cis-13-1 to clear liver steatosis in diet induced obesity (DIO) mice. Methods:”

ALT = ALT levels (clinical chemistry) in ob/ob mice; type: in vivo; conditions: 9 weeks of treatment, from 634 IU/L in the vehicle treated group
Experimental: (§3) Methods: ob/ob mice were maintained on a standard diet. Compound cis-13-1 was administered at doses of 3, 10 and 30 mg/kg/d orally in a CMC suspension. T3, 100 nmole/kg/d, was administered as an aqueous solution subcutaneously. Liver triglycerides were analyzed as described in example A. Epididymal fat pads were removed and weighed. Clinical chemistry analysis was performed by LabCorp (San Diego, Calif.).

[3] = Epididymal fat pad weight in ob/ob mice; type: in vivo; conditions: for EFP weight: CMC suspension
Experimental: as §3

CPT-1 = assay: Liver gene expression (real-time PCR) in normal mice; type: in vivo; conditions: normal C57Bl6 mice; 30 mg/kg/d orally, CMC suspension, 1 week; liver mRNA
Experimental: The purpose of these studies was to compare the ability of Compound cis-13-1 to change liver gene expression.
Methods: C57Bl6 mice were maintained on a normal rodent diet. Compound cis-13-1 was administered at doses of 30 mg/kg/d orally in a CMC suspension for 1 week. Changes in levels of mRNA for liver and heart genes are analyzed using reverse transcriptase followed by real-time PCR analysis. The analysis is performed using an iCycler instrument (Biorad) and appropriate primers by means of standard methodology (e.g., Schwab D A et al. Life Sciences 66:1683-94(2000)). The amounts of mRNA are normalized to an internal control, typically, cyclophilin.

[4] = Heart rate (Lead I ECG) in DIO mice; type: in vivo, diet induced obesity (DIO) mice; conditions: 30 mg/kg/d orally, 10 weeks
Experimental: as §1, with “Methods:” for “The purpose of these studies was to compare the ability of Compound cis-13-1 to clear liver steatosis in diet induced obesity (DIO) mice. Methods:”

TSH [5] = assay: TSH in DIO mice; type: in vivo, diet induced obesity (DIO) mice; conditions: 10 weeks of treatment
Experimental: as §1, with “Methods:” for “The purpose of these studies was to compare the ability of Compound cis-13-1 to clear liver steatosis in diet induced obesity (DIO) mice. Methods:”

hepatic steatosis [6] = assay: Hepatic steatosis measured chemically and histologically in ob/ob mice; type: in vivo; conditions: oral administration of cis-13-1
Experimental: as §3

TSH [7] = assay: TSH in ZDF rats; type: in vivo, Zucker diabetic fatty (ZDF) rats; conditions: 4 weeks of treatment
Experimental: as §2

hepatic steatosis [8] = assay: Liver steatosis (H&E sections) in ZDF rats; type: in vivo, Zucker diabetic fatty (ZDF) rats; conditions: oral, CMC suspension
Experimental: as §2

liver triglycerides = assay: Liver triglycerides, chronic exposure in ob/ob mice; type: in vivo; conditions: for Liver Trigs: CMC suspension
Experimental: Sections of liver were removed and frozen. Liver triglycerides were analyzed following lipid extraction by the Bligh Dyer method (Bligh and Dyer, Can. J. Med. Sci. 37(8):911-7 (1959), incorporated herein by reference). Total triglycerides were analyzed in the liver extracts by an enzymatic assay (Thermo Electron Corporation). Total lipid was normalized to initial liver weight and triglyceride content was normalized to liver weight mGPDH activity was analyzed in isolated mitochondria using 2-(4-iodophenyl)-3-(4-nitrophenyl)-5-phenyl tetrazolium chloride as the terminal electron acceptor (Gardner R S, Analytical Biochemistry 59:272 (1974)). Commercially available GPDH was used in each assay as a standard (Sigma, St. Louis, Mo.).
The purpose of these studies was to compare the difference in efficacy to clear liver triglyceride content between Compound cis-13-1 and T3 in ob/ob mice.
as §3

EFP weight ([3]; 3 mg/kg/d orally): 4.4 ± 0.1 g
EFP weight ([3]; 10 mg/kg/d orally): 4.7 ± 0.1 g
EFP weight ([3]; 30 mg/kg/d orally): 4.4 ± 0.1 g
Effect on TSH, in words (TSH [5]): No significant decreases in TSH
Effect on TSH, in words (TSH [7]): No significant decreases in TSH
Compound: Cc1cc(OC[P@@]2(=O)OCC[C@@H](c3cccc(Cl)c3)O2)cc(C)c1Cc1ccc(O)c(C(C)C)c1 [Compound cis-13-1]
Effect on hepatic steatosis (visual, H&E), in words (hepatic steatosis [1]): decreased hepatic steatosis
Heart rates and other cardiovascular parameters, change from vehicle, in words [2]: no significant changes from vehicle in any parameter
Ultrastructure of mitochondria, in words (mitochondria): no abnormalities in the ultrastructure of mitochondria
Decrease in ALT levels (ALT): > 50%
Effect on epididymal fat pad (EFP) weight, in words ([3]; cis-13-1 oral, T3 100 nmole/kg/d s.c.): did not decrease epididymal fat pad (EFP) weight; also recorded: no effect on epididymal fat pad weight
Increase in CPT-1 expression (CPT-1): 3.5 fold
Change in heart rate, in words [4]: no significant change in heart rate
Effect on hepatic steatosis measured chemically and histologically, in words (hepatic steatosis [6]): decreased hepatic steatosis
Effect on hepatic steatosis (visual, H&E), in words (hepatic steatosis [8]): visually decreased hepatic steatosis compared to control
Liver Trigs (liver triglycerides; 3 mg/kg/d orally): 87 ± 6 mg/g
Liver Trigs (liver triglycerides; 10 mg/kg/d orally): 66 ± 10 mg/g
Liver Trigs (liver triglycerides; 30 mg/kg/d orally): 59 ± 6 mg/g
Effect on liver (hepatic) triglyceride content, in words (liver triglycerides; cis-13-1 oral 3, 10, 30 mg/kg/d, T3 100 nmole/kg/d s.c.): decreased hepatic triglyceride content at 10 and 30 mg/kg/d

Reference: patent publication US10925885B2, “Thyromimetics for the treatment of fatty liver diseases” (Metabasis Therapeutics, Inc., priority 2005, dated 2021)
